In patent US10118918B2, “PRMT5 inhibitors and uses thereof” (Epizyme, Inc., priority 2012, dated 2018):

Legend:
[1] = tested on: symmetric di-methyl arginine in Z-138 cells; experiment: Z-138 Methylation Assay (In Cell Western for symmetric di-methyl arginine and DNA content); format: cell-based; details: Homo sapiens, 96 hours incubation, read-out: ICW EC50
Source text: [formula] Where top and bottom are the normally allowed to float, but may be fixed at 100 or 0 respectively in a 3-parameter fit. The Hill Coefficient normally allowed to float but may also be fixed at 1 in a 3-parameter fit. Y is the % inhibition and X is the compound concentration. Z-138 Methylation Assay
Z-138 suspension cells were purchased from ATCC (American Type Culture Collection, Manassas, Va.). RPMI/Glutamax medium, penicillin-streptomycin, heat inactivated fetal bovine serum, and D-PBS were purchased from Life Technologies, Grand Island, N.Y., USA. Odyssey blocking buffer, 800CW goat anti-rabbit IgG (H+L) antibody, and Licor Odyssey infrared scanner were purchased from Licor Biosciences, Lincoln, Nebr., USA. Symmetric di-methyl arginine antibody was purchased from EMD Millipore, Billerica, Mass., USA. 16% Paraformaldehyde was purchased from Electron Microscopy Sciences, Hatfield, Pa., USA.
Z-138 suspension cells were maintained in growth medium (RPMI 1640 supplemented with 10% v/v heat inactivated fetal bovine serum and 100 units/mL penicillin-streptomycin) and cultured at 37° C. under 5% CO2.
Cell Treatment, in Cell Western (ICW) for Detection of Symmetric Di-Methyl Arginine and DNA Content.
Z-138 cells were seeded in assay medium at a concentration of 50,000 cells per mL to a 384-well cell culture plate with 50 μL per well. Compound (100 nL) from 384 well source plates was added directly to 384 well cell plate. Plates were incubated at 37° C., 5% CO2 for 96 hours. After four days of incubation, 40 μL of cells from incubated plates were added to poly-D-lysine coated 384 well culture plates (BD Biosciences 356697). Plates were incubated at room temperature for 30 minutes then incubated at 37° C., 5% CO2 for 5 hours. After the incubation, 40 μL per well of 8% paraformaldehyde in PBS (16% paraformaldahyde was diluted to 8% in PBS) was added to each plate and incubated for 30 minutes. Plates were transferred to a Biotek 405 plate washer and washed 5 times with 100 μL per well of wash buffer (IX PBS with 0.1% Triton X-100 (v/v)). Next 30 μL per well of Odyssey blocking buffer were added to each plate and incubated 1 hour at room temperature. Blocking buffer was removed and 20 μL per well of primary antibody was added (symmetric di-methyl arginine diluted 1:100 in Odyssey buffer with 0.1% Tween 20 (v/v)) and plates were incubated overnight (16 hours) at 4° C. Plates were washed 5 times with 100 μL per well of wash buffer. Next 20 μL per well of secondary antibody was added (1:200 800CW goat anti-rabbit IgG (H+L) antibody, 1:1000 DRAQ5 (Biostatus limited) in Odyssey buffer with 0.1% Tween 20 (v/v)) and incubated for 1 hour at room temperature. The plates were washed 5 times with 100 μL per well wash buffer then 1 time with 100 μL per well of water. Plates were allowed to dry at room temperature then imaged on the Licor Odyssey machine which measures integrated intensity at 700 nm and 800 nm wavelengths. Both 700 and 800 channels were scanned.
First, the ratio for each well was determined by:
Each plate included fourteen control wells of DMSO only treatment (minimum inhibition) as well as fourteen control wells for maximum inhibition treated with 3 μM of a reference compound (Background wells). The average of the ratio values for each control type was calculated and used to determine the percent inhibition for each test well in the plate. Reference compound was serially diluted three-fold in DMSO for a total of nine test concentrations, beginning at 3 μM. Percent inhibition was determined and IC50 curves were generated using triplicate wells per concentration of compound. […]

[2] = tested on: Z-138 cells; experiment: Z-138 Proliferation Assay (Cell Titer Glo); format: cell-based; details: Homo sapiens, 120 h, 5 days incubation
Source text: [formula] Z-138 Proliferation Assay
Z-138 suspension cells were purchased from ATCC (American Type Culture Collection, Manassas, Va.). RPMI/Glutamax medium, penicillin-streptomycin, heat inactivated fetal bovine serum were purchased from Life Technologies, Grand Island, N.Y., USA. V-bottom polypropylene 384-well plates were purchased from Greiner Bio-One, Monroe, N.C., USA. Cell culture 384-well white opaque plates were purchased from Perkin Elmer, Waltham, Mass., USA. Cell-Titer Glo® was purchased from Promega Corporation, Madison, Wis., USA. SpectraMax M5 plate reader was purchased from Molecular Devices LLC, Sunnyvale, Calif., USA.
Z-138 suspension cells were maintained in growth medium (RPMI 1640 supplemented with 10% v/v heat inactivated fetal bovine serum and cultured at 37° C. under 5% CO2. Under assay conditions, cells were incubated in assay medium (RPMI 1640 supplemented with 10% v/v heat inactivated fetal bovine serum and 100 units/mL penicillin-streptomycin) at 37° C. under 5% CO2.
For the assessment of the effect of compounds on the proliferation of the Z-138 cell line, exponentially growing cells were plated in 384-well white opaque plates at a density of 10,000 cells/ml in a final volume of 50 μl of assay medium. A compound source plate was prepared by performing triplicate nine-point 3-fold serial dilutions in DMSO, beginning at 10 mM (final top concentration of compound in the assay was 20 μM and the DMSO was 0.2%). A 100 nL aliquot from the compound stock plate was added to its respective well in the cell plate. […] After addition of compounds, assay plates were incubated for 5 days at 37° C., 5% CO2, relative humidity >90%.
Cell viability was measured by quantitation of ATP present in the cell cultures, adding 35 μl of Cell Titer Glo® reagent to the cell plates. Luminescence was read in the SpectraMax M5 microplate reader. The concentration of compound inhibiting cell viability by 50% was determined using a 4-parametric fit of the normalized dose response curves.

| Compound | EC50 [1] | EC50 [2] |
| --- | --- | --- |
| Cn1ncc2ccc(OCC(=O)NC[C@H](O)CN3Cc4ccccc4C3)cc21 [compound 27] | 1000 to 10000 nM | > 20000 nM |
| O=C(NC[C@H](O)CN1Cc2ccccc2C1)c1ccnc(NC2CCOCC2)c1 [compound 30] | 101 to 1000 nM | 1000 to 10000 nM |
| O=C(NC[C@H](O)CN1Cc2ccccc2C1)c1cncc(NC2CCNC2)c1 (some centres unmarked) [compound 32] | 1000 to 10000 nM | > 20000 nM |
| CS(=O)(=O)N1CCC(Nc2cncc(C(=O)NC[C@H](O)CN3Cc4ccccc4C3)c2)C1 (some centres unmarked) [compound 33] | 101 to 1000 nM | > 20000 nM |
